Consider 14 compounds from patent US7713994B2 (Wyeth LLC, priority 2005, dated 2010).

Broadly, the IC50 is the midpoint of a concentration-inhibition curve.

For experiment [1], the system named is MCF-7. Description: Cytotoxicity assay (SRB), MCF-7. The format is cell-based. The following applies: MCF-7 cells, SRB, read-out: In Vitro Cellular Activity IC50 MCF-7. An outline of the steps: (§1)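 Overnight-seeded monolayers (4000–12000 cells/well by line) receive compound in 5% FBS medium at 37 °C, 7% CO2. After 3 d, or 6 d for BT474, cellular protein is fixed with cold TCA, stained with SRB and read at 540 nm against untreated wells.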

Experiment [2] addresses T1, cyclin D1/cdk 4 enzyme (Homo sapiens, UniProt P11802).
T1 construct: made in house; host or cells: Sf9 insect cells, recombinant baculovirus
The experiment can be described thus: CDK4 ELISA kinase assay (phospho-Rb ser 795 detection). Format: biochemical. In a few lines: (§2)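 Wells were coated overnight with GST-Rb C-terminal fragment, then blocked. Compound (10 ug/ml final) and cyclin/CDK enzyme from baculovirus-infected Sf9 cells with 200 μM ATP reacted 1 h at 30° C. Ser795 phosphorylation was detected by ELISA at 450 nm.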

The target in experiment [3] is T2, cyclin B/CDK1 enzyme (Homo sapiens, UniProt P06493).
T2 construct: purchased New England BioLabs; host or cells: Sf9 insect cells, recombinant baculovirus
Description: CDK1 ELISA kinase assay (phospho-Rb ser 795 detection). Format: biochemical. In a few lines:
as §2

The subject of experiment [4] is BT474. Description: Cytotoxicity assay (SRB), BT474. The format is cell-based. An outline of the steps:
as §1

The target in experiment [5] is T3, cyclin E/CDK2 enzyme (Homo sapiens, UniProt P24941).
T3 construct: made in house; host or cells: Sf9 insect cells, recombinant baculovirus
The experiment can be described thus: CDK2 ELISA kinase assay (phospho-Rb ser 795 detection). The format is biochemical. In a few lines:
as §2
For orientation: In an ELISA, binding on a coated surface is turned into a signal by an enzyme label.

For experiment [6], the system named is HCT-116. Description: Cytotoxicity assay (SRB), HCT-116. Format: cell-based. The note with it: HCT116 cells, SRB, read-out: In Vitro Cellular Activity IC50 HCT116. In a few lines: as §1
Experiment [7] deals with LoVo. Description: Cytotoxicity assay (SRB), LoVo. The following applies: LoVo cells, SRB, read-out: In Vitro Cellular Activity IC50 LOVO. Format: cell-based. In a few lines:
as §1

Where [8] appears, read: Homo sapiens, MCF7, 72 h, 3 days.
[9] abbreviates: In Vitro Enzyme Assays, 200 μM ATP, read-out: CDK4 IC50.
Setting [10] is: In Vitro Enzyme Assays, read-out: CDK1 IC50.
The mark [11] stands for this setting: Homo sapiens, BT-474, 144 h, BT474 cells, 6 days, SRB; read-out: In Vitro Cellular Activity IC50 BT474.
Where [12] appears, read: In Vitro Enzyme Assays, read-out: CDK2 IC50.
[13] abbreviates: Homo sapiens, HCT-116, 72 h, 3 days.
[14] abbreviates: Homo sapiens, LoVo, 72 h, 3 days.
[15] abbreviates: Homo sapiens, MCF7, 72 h, three days.
Where [16] appears, read: Homo sapiens, BT-474, 144 h, BT474 cells, SRB, 6 days; read-out: In Vitro Cellular Activity IC50 BT474.
Where [17] appears, read: Homo sapiens, HCT-116, 72 h, three days.
The mark [18] stands for this setting: Homo sapiens, LoVo, 72 h, three days.
[19] abbreviates: In Vitro Enzyme Assay, cyclin D1/cdk 4, read-out: CDK4 IC50.
Setting [20] is: In Vitro Enzyme Assay, cyclin B/CDK1, read-out: CDK1 IC50.
The mark [21] stands for this setting: In Vitro Enzyme Assay, cyclin E/CDK2, read-out: CDK2 IC50.

Where two headings read alike, the source gives them in different places. Where only a bound is given, the exact number is not on record here.

T2 sequence (P06493 whole entry): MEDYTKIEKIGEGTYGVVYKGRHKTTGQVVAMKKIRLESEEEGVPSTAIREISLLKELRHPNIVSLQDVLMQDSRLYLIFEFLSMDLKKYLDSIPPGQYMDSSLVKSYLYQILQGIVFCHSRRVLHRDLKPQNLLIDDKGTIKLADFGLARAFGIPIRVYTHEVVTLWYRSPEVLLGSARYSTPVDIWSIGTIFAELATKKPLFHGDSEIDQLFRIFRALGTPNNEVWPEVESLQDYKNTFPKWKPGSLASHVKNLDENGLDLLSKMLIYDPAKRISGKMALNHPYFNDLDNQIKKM
T2 sequence (P14635 whole entry partner): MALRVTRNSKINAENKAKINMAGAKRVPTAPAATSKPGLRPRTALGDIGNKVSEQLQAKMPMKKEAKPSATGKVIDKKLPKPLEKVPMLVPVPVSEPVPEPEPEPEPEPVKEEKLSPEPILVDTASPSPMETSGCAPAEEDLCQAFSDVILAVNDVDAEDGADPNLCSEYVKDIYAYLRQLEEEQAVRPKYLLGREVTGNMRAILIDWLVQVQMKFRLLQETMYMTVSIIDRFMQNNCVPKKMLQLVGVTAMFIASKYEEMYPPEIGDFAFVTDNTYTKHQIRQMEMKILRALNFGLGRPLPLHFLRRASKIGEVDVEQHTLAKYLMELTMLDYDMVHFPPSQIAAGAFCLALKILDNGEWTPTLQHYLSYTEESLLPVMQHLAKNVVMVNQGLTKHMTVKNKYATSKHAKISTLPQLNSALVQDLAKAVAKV
T1 sequence (P11802 whole entry, species assumed): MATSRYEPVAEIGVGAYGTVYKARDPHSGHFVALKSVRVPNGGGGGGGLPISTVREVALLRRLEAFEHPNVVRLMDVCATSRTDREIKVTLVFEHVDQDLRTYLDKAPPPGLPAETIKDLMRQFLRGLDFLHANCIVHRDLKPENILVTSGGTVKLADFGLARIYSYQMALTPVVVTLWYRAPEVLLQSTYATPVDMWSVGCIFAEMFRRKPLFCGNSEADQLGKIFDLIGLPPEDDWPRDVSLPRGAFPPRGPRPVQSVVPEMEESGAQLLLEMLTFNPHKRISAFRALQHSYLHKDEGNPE
T1 sequence (P24385 whole entry partner, species assumed): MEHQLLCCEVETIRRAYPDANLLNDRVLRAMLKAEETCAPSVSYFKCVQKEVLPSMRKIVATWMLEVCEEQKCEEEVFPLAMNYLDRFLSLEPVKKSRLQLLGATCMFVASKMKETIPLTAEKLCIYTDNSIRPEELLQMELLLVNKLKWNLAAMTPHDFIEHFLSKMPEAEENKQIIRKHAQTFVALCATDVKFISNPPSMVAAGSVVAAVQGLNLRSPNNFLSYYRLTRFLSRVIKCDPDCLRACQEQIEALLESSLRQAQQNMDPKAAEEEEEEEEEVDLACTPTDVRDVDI

Turning to `COCC(C)N1CCN(c2ccc(N/C=C3\C(=O)NC(=O)c4ccc(I)cc43)cc2)CC1` (centres unmarked) [Example 399, (4Z)-6-Iodo-4-[({4-[4-(2-methoxy-1-methylethyl)piperazin-1-yl]phenyl}amino)methylene]isoquinoline-1,3(2H,4H)-dione], the IC50 is 5.4 µM in experiment [1] (setting [8]); 0.34 µM in experiment [2] (setting [9]); > 50 µM in experiment [3] (setting [10]); 7.57 µM in experiment [4] (setting [11]); > 50 µM in experiment [5] (setting [12]); 3 µM in experiment [6] (setting [13]). For the same compound, the IC50 in experiment [7] (setting [14]) came to 7 µM.

Turning to `COc1ccc(CN/C=C2\C(=O)NC(=O)c3ccc(-c4ccc(F)cc4)cc32)cc1O` [Example 208, (4Z)-6-(4-Fluorophenyl)-4-{[(3-hydroxy-4-methoxybenzyl)amino]methylene}iso-quinoline-1,3(2H,4H)-dione], the 50% inhibitory concentration (IC50) in experiment [1] (setting [15]) was 3.4 µM; in experiment [2] (setting [9]) it was 0.009 µM; in experiment [3] (setting [10]), > 50 µM; in experiment [4] (setting [16]), 8.2 µM; in experiment [5] (setting [12]), 30.3 µM; in experiment [6] (setting [17]), 5.7 µM. Moreover, in experiment [7] (setting [18]), the IC50 came out at 15 µM.

As to `O=C1NC(=O)c2ccc(-c3cccc4cccnc34)cc2C1=CNCc1ccc(O)c(O)c1` [Example 642, 4-[(3,4-Dihydroxy-benzylamino)-methylene]-6-quinolin-8-yl-4H-isoquinoline-1,3-dione], the IC50 in experiment [1] (setting [8]) is 12.7 µM; in experiment [2] (setting [19]) it was 1 µM; in experiment [3] (setting [20]), > 50 µM; in experiment [4] (setting [11]), 14.2 µM; in experiment [5] (setting [21]) it was 28.3 µM; in experiment [6] (setting [13]) it was 20.5 µM. In addition, the IC50 in experiment [7] (setting [14]) turned out to be 12.1 µM.

As for `O=C1NC(=O)c2ccc(I)cc2/C1=C/NCc1ccc(-c2ccc(F)cc2)c(O)c1` [Example 500, 4-{[(4′-Fluoro-2-hydroxy-biphenyl-4-ylmethyl)-amino]-methylene}-6-iodo-4H-isoquinoline-1,3-dione], the IC50 worked out at 3.8 µM in experiment [1] (setting [8]); 0.14 µM in experiment [2] (setting [19]); 43.4 µM in experiment [3] (setting [20]); 2.3 µM in experiment [4] (setting [11]); 15.1 µM in experiment [5] (setting [21]); 1.9 µM in experiment [6] (setting [13]). Further, in experiment [7] (setting [14]), the IC50 is 1.8 µM.

Turning to `CC(=O)c1ccc(-c2ccc3c(c2)C(=CNc2ccc(N4CCN(C)CC4)cc2)C(=O)NC3=O)cc1` [Example 688, 6-(4-Acetyl-phenyl)-4-{[4-(4-methyl-piperazin-1-yl)-phenylamino]-methylene}-4H-isoquinoline-1,3-dione], the IC50 in experiment [1] (setting [8]) is 5 µM; in experiment [2] (setting [19]), 0.26 µM; in experiment [3] (setting [20]), 21.1 µM; in experiment [4] (setting [11]), 3.3 µM; in experiment [5] (setting [21]), > 50 µM; in experiment [6] (setting [13]) it was 2 µM. In addition, the IC50 in experiment [7] (setting [14]) came to 4.6 µM.

“6-Bromo-4-{[4-(4-methyl-piperazin-1-yl)-phenylamino]-methylene}-1,4-dihydro-2H-isoquinolin-3-one & 8-Bromo-4-{[4-(4-methyl-piperazin-1-yl)-phenylamino]-methylene}-1,4-dihydro-2H-isoquinolin-3-one [Example 845]”: the IC50 is 4.5 µM in experiment [1] (3 days); 2.3 µM in experiment [2] (setting [19]); > 50 µM in experiment [3] (setting [20]); 7.5 µM in experiment [4] (BT474 cells, 6 days, SRB; read-out: In Vitro Cellular Activity IC50 BT474); > 50 µM in experiment [5] (setting [21]); 4.2 µM in experiment [6] (3 days). In addition, the IC50 in experiment [7] (3 days) came to 2.5 µM.

For `C/C=C(\C)C(=O)Nc1ccc(CN/C=C2\C(=O)NC(=O)c3ccc(I)cc32)cc1O` [Example 336, (2E)-N-[2-Hydroxy-4-({[(Z)-(6-iodo-1,3-dioxo-2,3-dihydroisoquinolin-4(1H)-ylidene)methyl]amino}methyl)phenyl]-2-methylbut-2-enamide], the IC50 in experiment [1] (setting [15]) is 6.1 µM; in experiment [2] (setting [9]), 0.04 µM; in experiment [3] (setting [10]) it was > 50 µM; in experiment [4] (setting [16]) it was 19 µM; in experiment [5] (setting [12]), 5.8 µM; in experiment [6] (setting [17]), 12 µM. The half-inhibitory concentration (IC50) in experiment [7] (setting [18]) came out at 14 µM.

For `O=C1NC(=O)c2ccc(C=CCn3ccnc3)cc2C1=CNCc1ccc(O)c(O)c1` [Example 665, 4-[(3,4-Dihydroxy-benzylamino)-methylene]-6-(3-imidazol-1-yl-propenyl)-4H-isoquinoline-1,3-dione], the IC50 was 13 µM in experiment [1] (setting [8]); 0.16 µM in experiment [2] (setting [19]); 42.5 µM in experiment [3] (setting [20]); 28.9 µM in experiment [4] (setting [11]); 8.2 µM in experiment [5] (setting [21]); 46.8 µM in experiment [6] (setting [13]). Besides, in experiment [7] (setting [14]), the IC50 is > 50 µM.

Turning to `CCCCCCOc1ccc(CN/C=C2\C(=O)NC(=O)c3ccc(Br)cc32)cc1O` [Example 150, (4Z)-6-Bromo-4-({[4-(hexyloxy)-3-hydroxybenzyl]amino}methylene)isoquinoline-1,3(2H,4H)-dione], the IC50 in experiment [1] (setting [15]) is 46 µM; in experiment [2] (setting [9]), 7.2 µM; in experiment [3] (setting [10]), > 50 µM; in experiment [4] (setting [16]) it was > 50 µM; in experiment [5] (setting [12]), > 50 µM; in experiment [6] (setting [17]), 49 µM. The IC50 in experiment [7] (setting [18]) is > 50 µM.

As for `COc1ccc(-c2ccc3c(c2)C(=CNCc2ccc(O)c(O)c2)C(=O)NC3=O)cc1` [Example 764, 4-[(3,4-Dihydroxy-benzylamino)-methylene]-6-(4-methoxy-phenyl)-4H-isoquinoline-1,3-dione], the 50% inhibitory concentration (IC50) amounted to 10.3 µM in experiment [1] (setting [8]); 0.06 µM in experiment [2] (setting [19]); 16.5 µM in experiment [3] (setting [20]); 23.1 µM in experiment [4] (setting [11]); 7.3 µM in experiment [5] (setting [21]); 9.3 µM in experiment [6] (setting [13]). Moreover, the 50% inhibitory concentration (IC50) in experiment [7] (setting [14]) worked out at 8.6 µM.

In the case of `COc1cnc(CNC=C2C(=O)NC(=O)c3ccc(I)cc32)cc1O` [Example 362, 6-Iodo-4-{[(4-hydroxy-5-methoxy-pyridin-2-ylmethyl)-amino]-methylene}-4H-isoquinoline-1,3-dione], the IC50 in experiment [1] (setting [15]) was found to be 1 µM; in experiment [2] (setting [9]), 0.01 µM; in experiment [3] (setting [10]), 14.7 µM; in experiment [4] (setting [16]), 0.2 µM; in experiment [5] (setting [12]), 0.5 µM; in experiment [6] (setting [17]) it was 1.3 µM. Also, in experiment [7] (setting [18]), the 50% inhibitory concentration (IC50) is 0.7 µM.

With `CN(C)CCCN(C)c1ccc(N/C=C2\C(=O)NC(=O)c3ccc(Br)cc32)cc1` [Example 275, (4Z)-6-Bromo-4-[({4-[[3-(dimethylamino)propyl](methyl)amino]phenyl}amino)methylene]isoquinoline-1,3(2H,4H)-dione], the IC50 in experiment [1] (setting [15]) is 5.3 µM; in experiment [2] (setting [9]), 14.4 µM; in experiment [3] (setting [10]), > 50 µM; in experiment [4] (setting [16]) it was 10 µM; in experiment [5] (setting [12]), > 50 µM; in experiment [6] (setting [17]) it was 4.2 µM. Moreover, the IC50 in experiment [7] (setting [18]) was determined as 8.6 µM.

As to `CN(CCN1CCCC1)c1ccc(N/C=C2\C(=O)NC(=O)c3ccc(Br)cc32)cc1` [Example 255, (4Z)-6-Bromo-4-[({4-[methyl(2-pyrrolidin-1-ylethyl)amino]phenyl}amino)methylene]isoquinoline-1,3(2H,4H)-dione], the IC50 in experiment [1] (setting [15]) is 3.6 µM; in experiment [2] (setting [9]), 2.5 µM; in experiment [3] (setting [10]), > 50 µM; in experiment [4] (setting [16]), 7.9 µM; in experiment [5] (setting [12]), > 50 µM; in experiment [6] (setting [17]), 3.1 µM. In addition, the IC50 in experiment [7] (setting [18]) turned out to be 3.8 µM.

As for `NS(=O)(=O)c1ccc(CNC=C2C(=O)NC(=O)c3ccc(-c4cc5ccccc5s4)cc32)cc1` [Example 635, 4-{[(6-Benzo[b]thiophen-2-yl-1,3-dioxo-2,3-dihydro-1H-isoquinolin-4-ylidenemethyl)-amino]-methyl}-benzenesulfonamide], the concentration for half-maximal inhibition (IC50) in experiment [1] (setting [8]) is 11.4 µM; in experiment [2] (setting [19]), 1.2 µM; in experiment [3] (setting [20]), 16.9 µM; in experiment [4] (setting [11]) it was 37.2 µM; in experiment [5] (setting [21]), 19.7 µM; in experiment [6] (setting [13]), 23.6 µM. In experiment [7] (setting [14]), the IC50 was > 50 µM.
